Values joined by “and” are separate entries in the source; they are usually repeats but may differ in a detail not shown here. Identical values can stand only once.
Key:
[1] = target: HLA-A*02:01 (Homo sapiens, UniProt P04439, D140Y/D185E/D98H/E176V/E277Q/G131W/G231S/I119V/I121R/I166T/I218V/L300P/L318F/N151K/N90K/P208A/P217A/Q86G/Q94H/R138H/R169H/T345S); test: HLA-A*02:01 binding assay (surface stabilization on TAP-deficient T2 cells); settings: different peptide concentrations in duplicate, serum-free RPMI, overnight at room temperature, PE anti-HLA-A2 (BB7.2) flow cytometry, referred to 25 μM HB-ENV335-343 peptide
Protocol: (§1) TAP-deficient T2 cells were used for the HLA-A*02:01 binding assays and the K562-A2 cells for the HLA-A*02:01 restriction assay. The cells were cultured in complete RPMI medium supplemented with 10% of inactivated Fetal Calf Serum (iFCS), 2 mM glutamine, and 100 U/ml penicillin. K562-A2 cells, expressing the HLA-A*02:01 molecule were cultured in the presence of […] of G-418, as previously described. The T2 and K562-A2 cells were kindly provided by Dr. Pedro Romero (University of Lausanne) and by Dr Peter Ponsaerts (University of Antwerp, with the permission of Dr. Cedrik Britten from Johanes Gutenberg-University Mainz), respectively.
HLA-A*02:01 surface stabilization test was carried out as described in [42]. Briefly, TAP-deficient T2 cells were loaded with different concentrations of each peptide, in duplicate in serum-free RPMI medium, and incubated overnight at room temperature. Afterwards, the cells were stained with a PE-labeled HLA-A2-specific antibody (BB7.2 clone, BD biosciences) and analyzed by flow cytometry. The high-affinity HLA-A*02:01-binding peptide […] ([…]) was included as internal standard. Affinity data were calculated as the percentage of maximum complex stabilization, as described in [44]. The following equation was used: % of maximal stabilization = 100 x [(mean fluorescence with peptide)–(background mean fluorescence)]/[(mean fluorescence with 25 μM HBENV335-343 peptide)–(background mean fluorescence)]. Background value was obtained with cells incubated in the same conditions without peptide.
The percentage of maximal binding stabilization of these eight TcCA-2 peptides was evaluated using TAP-deficient T2 cells and different concentrations of each peptide. […] The maximal binding affinity is shown for each peptide in Table 1.

[2] = tested on: PBMCs from asymptomatic HLA-A*02:01 Chagas disease patients; test: HLA-A*02:01 restriction assay: peptide-pulsed K562-A2 cells as APC, IFN-γ secretion by patient PBMC; format: cell-based, human; settings: K562-A2 cells pulsed with 1 mM peptide 1 h, co-cultured 30 h with PBMC of asymptomatic (IND) patients; positive = IFN-γ at least two folds un-stimulated cells
[3] = tested on: PBMCs from asymptomatic HLA-A*02:01 Chagas disease patients; test: as above; format: cell-based, human; settings: range among patients with a positive response; K562-A2 pulsed with 1 mM peptide 1 h, 30 h co-culture; K562 level subtracted
Protocol: as §1
For the screening of the recognition of TcCA-2 epitopes by Chagas disease patients, 10 HLA-A*02:01 adult patients in the asymptomatic phase of the disease (IND) were enrolled. For cytotoxicity, functional activity determinations and phenotypic characterization another group of 19 HLA-A*02:01 adults Chagas disease patients and 9 healthy donors were analyzed. These patients were at the chronic stage of the disease and were considered to be at the asymptomatic phase (IND, n = 8) if there was no evidence of having cardiac or gastrointestinal disorders. Chronic Chagas cardiomyopathy patients (CCC, n = 11) were stratified into G1 to G3 stages following Kuschnir classification according to clinical criteria and radiological, electrocardiographic and echocardiography analyses. The number of patients was the one recommended by the Hospital Ethical Committee. […] The patients were enrolled in both studies (functional and phenotypic characterization, IND n = 6 and CCC n = 7) when the available number of purified PBMC (limited by the cellular number isolated from each subject) was enough for both analyses. Another four CCC patients had to be enrolled to perform the phenotypic analysis in order to reach statistical significance.
Cytokine secretion (IL-4, IL-10, IL-6, IFN-γ, TNF-α) was determined in the supernatants of PBMC from Chagas disease patients and healthy donors, after in vitro stimulation with 1 μM of each peptide for 30 h at 37°C in RPMI supplemented with 10% iFBS as explained before. The secretion profile was determined by using a bead-based multiplex immunoassay system (Bio-Plex, Bio-Rad), following the manufacturer's instructions. The response was considered positive if an increase in the secretion of cytokines was at least three folds higher than the secretion by un-stimulated cells (basal secretion level) and at least, 4 pg/mL for IL-4, 2 pg/mL for IL-10, 15 pg/mL for IL-6 and 5 pg/mL for IFN-γ and TNF-α. The positive control consisted of 50 ng/mL Phorbol 12 myristate 13-acetate (PMA) and 500 ng/mL ionomycin (Sigma). Cytokine levels were quantified in each sample by using the Bio-Plex Manager software 4.1 (Bio-Rad). […]

Q: How did the “% maximal stabilization” value [1] turn out when ALQVTNHRYL [TcCA-2_657-666] was run?
A: The value was 21.49%.

Q: What about the “Chagas disease patient: patients with positive response in relation with the total number of patients per assay” value (from here on “Chagas disease patient: patients … per assay”) [2] of the same sequence?
A: The value was “Two out of 9 and 2/9”.

Q: What about the INF-γ secretion range [3] of the same sequence?
A: The INF-γ secretion range was 6.1 to 6.7 pg/mL.

Q: With ALRNLRVFL [TcCA-2_607-615] as the sequence, how does the “% maximal stabilization” value [1] read?
A: The value was 29.54%.

Q: What about the “Chagas disease patient: patients … per assay” value [2] of the same sequence?
A: Its value is 3 out of 9 and 3/9.

Q: What about the INF-γ secretion range [3] of the same sequence?
A: The INF-γ secretion range was 6.4 to 15.1 pg/mL.

Q: What does the source list for AAAGDKLSL [TcCA-2_273-281]?
A: % maximal stabilization [1]: 12.41%; Chagas disease patient: patients with positive response in relation with the total number of patients per assay [2]: 1 out of 10 and 1/10; INF-γ secretion range [3]: 8.6 pg/mL

Q: TVFDASRSTV [TcCA-2_442-451] was tested. Which “% maximal stabilization” value [1] did it give?
A: Its value is 24.44%.

Q: And the “Chagas disease patient: patients … per assay” value [2]?
A: The value was 2 out of 10 and 2/10.

Q: And the INF-γ secretion range [3]?
A: The INF-γ secretion range was 5.8 to 6.9 pg/mL.

Source: PMC4376724, “Differential Phenotypic and Functional Profiles of TcCA-2 -Specific Cytotoxic CD8^+ T Cells in the Asymptomatic versus Cardiac Phase in Chagasic Patients” (PLoS ONE, 2015)
